Results from PubChem BioAssay (NCI).
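Compound exposure: 48 hours, 5 concentrations, 96-well plates. GI50 = concentration required for 50% inhibition of growth. TGI is the concentration that stops growth completely.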

Assays:
Assay in all cases: NCI-60 cell line screen, 48 h
[1] = tested on: NCI-H522 lung
[2] = tested on: HT29 colon
[3] = tested on: HCC-2998 colon
[4] = tested on: UACC-257 melanoma
[5] = tested on: BT-549 breast
[6] = tested on: NCI-H460 lung
[7] = tested on: SK-MEL-5 melanoma
[8] = tested on: SR leukemia
[9] = tested on: LOX IMVI melanoma
[10] = tested on: HS 578T breast
[11] = tested on: MDA-MB-435
[12] = tested on: SK-MEL-2 melanoma
[13] = tested on: SNB-75 CNS
[14] = tested on: CAKI-1 renal
[15] = tested on: UACC-62 melanoma
[16] = tested on: OVCAR-3 ovarian
[17] = tested on: SF-295 CNS
[18] = tested on: RPMI-8226 leukemia
[19] = tested on: SK-OV-3 ovarian
[20] = tested on: MDA-MB-231 breast
[21] = tested on: K-562 leukemia
[22] = tested on: KM12 colon
[23] = tested on: SN12C renal
[24] = tested on: U251 CNS
[25] = tested on: NCI-H226 lung
[26] = tested on: SF-268 CNS
[27] = tested on: 786-0 renal
[28] = tested on: TK-10 renal
[29] = tested on: M14 melanoma
[30] = tested on: HL-60(TB) leukemia
[31] = tested on: SF-539 CNS
[32] = tested on: HCT-15 colon
[33] = tested on: T-47D breast
[34] = tested on: HOP-62 NSCLC
[35] = tested on: OVCAR-8 ovarian
[36] = tested on: SNB-19 CNS
[37] = tested on: COLO 205 colon
[38] = tested on: OVCAR-4 ovarian
[39] = tested on: MOLT-4 leukemia
[40] = tested on: MALME-3M melanoma
[41] = tested on: A498 renal
[42] = tested on: RXF 393 renal
[43] = tested on: SK-MEL-28 melanoma
[44] = tested on: SW-620 colon
[45] = tested on: DU-145 prostate
[46] = tested on: ACHN renal
[47] = tested on: MCF7 breast
[48] = tested on: OVCAR-5 ovarian
[49] = tested on: EKVX NSCLC
[50] = tested on: PC-3 prostate
[51] = tested on: NCI/ADR-RES ovarian
[52] = tested on: IGROV1 ovarian
[53] = tested on: UO-31 renal
[54] = tested on: HOP-92 NSCLC
[55] = tested on: A549 NSCLC

Cc1ncn(-c2ccc(/C=N/Nc3ccnc4cc(Cl)ccc34)cc2)c1C
GI50 [1]: 1800 nM | TGI [1]: 3.39 µM | GI50 [2]: 1690 nM | TGI [2]: 3.33 µM | GI50 [3]: 1920 nM | TGI [3]: 3.52 µM | GI50 [4]: 1700 nM | TGI [4]: 3.11 µM | GI50 [5]: 1830 nM | TGI [5]: 3.44 µM | GI50 [6]: 1780 nM | TGI [6]: 3.57 µM | GI50 [7]: 2070 nM | TGI [7]: 4.38 µM | GI50 [8]: 1240 nM | TGI [8]: 4.57 µM | GI50 [9]: 2190 nM | TGI [9]: 3.98 µM | GI50 [10]: 2010 nM | TGI [10]: 4.48 µM | GI50 [11]: 1650 nM | TGI [11]: 3.05 µM | GI50 [12]: 1730 nM | TGI [12]: 3.22 µM | GI50 [13]: 1510 nM | TGI [13]: 2890 nM | GI50 [14]: 1630 nM | TGI [14]: 2990 nM | GI50 [15]: 1740 nM | TGI [15]: 3.24 µM | GI50 [16]: 1830 nM | TGI [16]: 3.75 µM | GI50 [17]: 1880 nM | TGI [17]: 3.52 µM | GI50 [18]: 1990 nM | TGI [18]: 4.52 µM | GI50 [19]: 1800 nM | TGI [19]: 3.36 µM | GI50 [20]: 2080 nM | TGI [20]: 3.84 µM | GI50 [21]: 2070 nM | TGI [21]: 8.07 µM | GI50 [22]: 2380 nM | TGI [22]: 5.79 µM | GI50 [23]: 1750 nM | TGI [23]: 3.47 µM | GI50 [24]: 1590 nM | TGI [24]: 2990 nM | GI50 [25]: 2420 nM | TGI [25]: 6.87 µM | GI50 [26]: 1860 nM | TGI [26]: 3.96 µM | GI50 [27]: 1610 nM | TGI [27]: 3.25 µM | GI50 [28]: 1850 nM | TGI [28]: 3.36 µM | GI50 [29]: 1810 nM | TGI [29]: 3.48 µM | GI50 [30]: 1560 nM | TGI [30]: 3.77 µM | GI50 [31]: 1820 nM | TGI [31]: 3.24 µM | GI50 [32]: 1800 nM | TGI [32]: 3.73 µM | GI50 [33]: 1830 nM | TGI [33]: 3.83 µM | GI50 [34]: 1740 nM | TGI [34]: 3.2 µM | GI50 [35]: 1870 nM | TGI [35]: 3.67 µM | GI50 [36]: 1880 nM | TGI [36]: 3.88 µM | GI50 [37]: 1740 nM | TGI [37]: 3.28 µM | GI50 [38]: 1670 nM | TGI [38]: 3.19 µM | GI50 [39]: 1940 nM | TGI [39]: 5.12 µM | GI50 [40]: 1930 nM | TGI [40]: 3.61 µM | GI50 [41]: 6.49 µM | TGI [41]: 20.2 µM | GI50 [42]: 1460 nM | TGI [42]: 2870 nM | GI50 [43]: 1650 nM | TGI [43]: 3.09 µM | GI50 [44]: 1630 nM | TGI [44]: 3.54 µM | GI50 [45]: 1880 nM | TGI [45]: 3.7 µM | GI50 [46]: 1790 nM | TGI [46]: 3.18 µM | GI50 [47]: 1540 nM | TGI [47]: 3.41 µM | GI50 [48]: 3.03 µM | TGI [48]: 10 µM | GI50 [49]: 3.45 µM | TGI [49]: 18 µM | GI50 [50]: 1720 nM | TGI [50]: 3.37 µM | GI50 [51]: 2070 nM | TGI [51]: 5.04 µM | GI50 [52]: 1970 nM | TGI [52]: 3.82 µM | GI50 [53]: 1640 nM | TGI [53]: 3.03 µM | GI50 [54]: 1590 nM | TGI [54]: 3.21 µM | GI50 [55]: 1700 nM | TGI [55]: 3.16 µM
